From ChEMBL document CHEMBL1201862, “PubChem BioAssay data set” (2004)
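Cells were grown in 96-well plates and exposed to each compound for 48 hours at five concentrations; endpoints were interpolated linearly between bracketing concentrations, or set to the highest concentration if not reached. GI50 = concentration required for 50% inhibition of growth.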 The source made the active and inactive calls. No stated cut-off is given here; in the data, active = GI50 up to about 1.1 µM and inactive = higher.

Assays:
Assay in all cases: inhibition of tumour cell growth, NCI panel, 48 h
ACHN = tested on: ACHN
HCC 2998 = tested on: HCC 2998
HCT-15 = tested on: HCT-15
HOP-62 = tested on: HOP-62
HOP-92 = tested on: HOP-92
K562 = tested on: K562
LOX IMVI = tested on: LOX IMVI
MDA-N = tested on: MDA-N
Malme-3M = tested on: Malme-3M
NCI-H522 = tested on: NCI-H522
OVCAR-3 = tested on: OVCAR-3
PC-3 = tested on: PC-3
RPMI-8226 = tested on: RPMI-8226
SF-268 = tested on: SF-268
SK-MEL-28 = tested on: SK-MEL-28
SNB-19 = tested on: SNB-19
A498 = tested on: A498
NCI-H226 = tested on: NCI-H226
OVCAR-5 = tested on: OVCAR-5
SK-OV-3 = tested on: SK-OV-3

| Structure (SMILES) | GI50 (ACHN) | GI50 (HCC 2998) | GI50 (HCT-15) | GI50 (HOP-62) | GI50 (HOP-92) | GI50 (K562) | GI50 (LOX IMVI) | GI50 (MDA-N) | GI50 (Malme-3M) | GI50 (NCI-H522) | GI50 (OVCAR-3) | GI50 (PC-3) | GI50 (RPMI-8226) | GI50 (SF-268) | GI50 (SK-MEL-28) | GI50 (SNB-19) | GI50 (A498) | GI50 (NCI-H226) | GI50 (OVCAR-5) | GI50 (SK-OV-3) |
| --- | --- | --- | --- | --- | --- | --- | --- | --- | --- | --- | --- | --- | --- | --- | --- | --- | --- | --- | --- | --- |
| c1ccc(COc2ccc(CC3SCCCS3)cc2)cc1 | > 100 µM (inactive) | > 100 µM (inactive) | 67.3 µM | > 100 µM (inactive) | 17.8 µM (inactive) | 52.5 µM (inactive) | > 100 µM (inactive) | > 100 µM (inactive) | > 100 µM (inactive) | > 100 µM (inactive) | > 100 µM (inactive) | > 100 µM (inactive) | 50.2 µM (inactive) | > 100 µM (inactive) | > 100 µM (inactive) | > 100 µM (inactive) |  |  |  |  |
| CC12CCC(Br)C(C)(C)C1CC=C1C(=O)OCC1O2 (stereo not given) | 12.5 µM (inactive) | 12.1 µM (inactive) | 12.1 µM |  | 11.9 µM (inactive) | 12.7 µM (inactive) | 9.57 µM (inactive) |  |  | 3.52 µM (inactive) | 16.9 µM (inactive) | 9.89 µM (inactive) | 2.73 µM (inactive) | 14.1 µM (inactive) | 14.8 µM (inactive) | 18.2 µM (inactive) | 12 µM (inactive) | 10.1 µM (inactive) | 18.7 µM (inactive) | 9.06 µM (inactive) |
| O=NN(CCCl)C(=O)NC1CCC(CC2CCC(NC(=O)N(CCCl)N=O)CC2)CC1 (stereo not given) | 38.1 µM (inactive) | > 100 µM (inactive) | 39.9 µM | 1.97 µM (inactive) | 26.2 µM (inactive) | 2.26 µM (inactive) | 0.91 µM (active) |  | 32.3 µM (inactive) | 1.53 µM (inactive) | 27.8 µM (inactive) |  | 1.96 µM (inactive) | 0.836 µM (active) | > 65.8 µM (inactive) | 12.2 µM (inactive) | 31.4 µM (inactive) | 79.3 µM (inactive) | > 100 µM (inactive) | 2.23 µM (inactive) |
| CCOC(=O)CCCOc1cc(-c2ccccc2F)nc2cc3c(cc12)OCO3 |  | 5.82 µM (inactive) | 3.29 µM | > 100 µM (inactive) | > 100 µM (inactive) |  | > 100 µM (inactive) | 88.7 µM (inactive) | 74.1 µM (inactive) |  |  | 29.6 µM (inactive) | 28.4 µM (inactive) |  | 73.5 µM (inactive) |  |  |  | > 100 µM (inactive) | > 100 µM (inactive) |
| CC(=O)CCC[C@H](C)[C@@H](O)[C@@H]1O[C@H]([C@@]2(C)CCC(=O)O2)C[C@H]1C(=O)O | > 100 µM (inactive) | > 100 µM (inactive) | > 100 µM | > 100 µM (inactive) |  | > 100 µM (inactive) | > 100 µM (inactive) | > 100 µM (inactive) |  | > 100 µM (inactive) | > 100 µM (inactive) | > 100 µM (inactive) | > 100 µM (inactive) | > 100 µM (inactive) | > 100 µM (inactive) | > 100 µM (inactive) |  | > 100 µM (inactive) | > 100 µM (inactive) | > 100 µM (inactive) |
| CCOC(=O)C1CC(O)C(=O)N1C (stereo not given) | > 100 µM (inactive) | > 100 µM (inactive) | > 100 µM | > 100 µM (inactive) | > 100 µM (inactive) |  | > 100 µM (inactive) | > 100 µM (inactive) |  |  | > 100 µM (inactive) | > 100 µM (inactive) | > 100 µM (inactive) |  | > 100 µM (inactive) | > 100 µM (inactive) |  | > 100 µM (inactive) | > 100 µM (inactive) | > 100 µM (inactive) |
| CC(C)c1cc2c(c(O)c1O)[C@@]1(C(=O)O)CCCC(C)(C)[C@@H]1CC2 [CARNOSIC ACID] | 13.4 µM (inactive) | 13.2 µM (inactive) | 27.3 µM | 27.2 µM (inactive) | 6.22 µM (inactive) | 28.4 µM (inactive) | 19.6 µM (inactive) | 32.4 µM (inactive) |  | 13 µM (inactive) | 22.7 µM (inactive) | 15.3 µM (inactive) | 7.48 µM (inactive) | 18.8 µM (inactive) | 13.2 µM (inactive) | > 10 µM (inactive) |  | 10.4 µM (inactive) | 20.8 µM (inactive) | 37.3 µM (inactive) |
| CC1=NOC(C)(O)/C1=N/O (stereo not given) | > 100 µM (inactive) | > 100 µM (inactive) | > 100 µM | > 100 µM (inactive) | > 100 µM (inactive) | > 100 µM (inactive) | > 100 µM (inactive) |  | > 100 µM (inactive) | > 100 µM (inactive) | > 100 µM (inactive) | > 100 µM (inactive) | > 100 µM (inactive) | > 100 µM (inactive) | > 100 µM (inactive) | > 100 µM (inactive) | > 100 µM (inactive) | > 100 µM (inactive) | > 100 µM (inactive) | > 100 µM (inactive) |
| CC(C)c1ccc(O)c(=O)cc1 [GAMMA-THUJAPLICIN] | 6.05 µM (inactive) | 7.08 µM (inactive) | 4.59 µM | 4.41 µM (inactive) | 5.62 µM (inactive) | 9.33 µM (inactive) | 4.29 µM (inactive) |  | 15.3 µM (inactive) | 3.39 µM (inactive) | 2.48 µM (inactive) |  | 5.13 µM (inactive) | 4.06 µM (inactive) | 12.6 µM (inactive) | 7.74 µM (inactive) | 19.6 µM (inactive) | 3.99 µM (inactive) | 14.3 µM (inactive) | 42.8 µM (inactive) |
| CCOC(=O)/C(=C/c1ccccn1)C(=O)c1ccccc1 | 20.4 µM (inactive) | 17.3 µM (inactive) | 13.2 µM | 15.2 µM (inactive) | 7.66 µM (inactive) | 5.19 µM (inactive) | 2.48 µM (inactive) |  | 13.5 µM (inactive) | 5.47 µM (inactive) | 14.1 µM (inactive) |  | 3.42 µM (inactive) | 19.1 µM (inactive) | 11.8 µM (inactive) | 17.6 µM (inactive) | 18.9 µM (inactive) | 15.9 µM (inactive) | 19.1 µM (inactive) | 17.9 µM (inactive) |
| COc1ccc(C2=CC(c3ccccc3)n3nnnc3N2)cc1 (stereo not given) | > 100 µM (inactive) |  | > 100 µM | 40.6 µM (inactive) |  | > 100 µM (inactive) | > 100 µM (inactive) |  |  | > 100 µM (inactive) | > 100 µM (inactive) | > 100 µM (inactive) | 7.14 µM (inactive) | 74 µM (inactive) |  | > 100 µM (inactive) |  | > 100 µM (inactive) | > 100 µM (inactive) | > 100 µM (inactive) |
| Cc1ccc(C(=O)CC(Cl)=C(Cl)Cl)cc1 | > 100 µM (inactive) |  | 67.1 µM | > 100 µM (inactive) | > 100 µM (inactive) | 41.6 µM (inactive) | 31.7 µM (inactive) |  | > 100 µM (inactive) | 49.3 µM (inactive) | 45.6 µM (inactive) | > 100 µM (inactive) | 29.2 µM (inactive) | > 100 µM (inactive) | > 100 µM (inactive) | > 100 µM (inactive) | > 100 µM (inactive) | 85.5 µM (inactive) | > 100 µM (inactive) | > 100 µM (inactive) |
